{"source": "patent US20100197765A1", "about": "“METHOD FOR PROMOTING THE EXPRESSION OF P53, AND P53 EXPRESSION PROMOTER FOR USE IN THE METHOD” (THE UNIVERSITY OF TOKUSHIMA, priority 2007, published 2010)", "type_in_all_cases": "cell-based, human", "key": {"[1]": {"test_system": "noxa mRNA, puma mRNA, and p21 mRNA", "assay": "expression of mRNAs induced in p53 pathways in HepG2 cells (Northern)", "conditions": "HepG2, 5-FU 30 μmol/L, 16 hours", "procedure": "In the same manner, HepG2 cells transfected with each type of the vectors were treated for 16 hours in the presence of 5-FU (30 μmol/L) (+) or the absence of 5-FU (−). With respect to the treated cells, expression of noxa mRNA, puma mRNA, and p21 mRNA induced in p53 pathways was analyzed by the Northern blotting. […] In FIG. 1D, the first row from the top indicates expression of noxa mRNA, the second row indicates expression of puma mRNA, the third row indicates expression of p21 mRNA, and the fourth row indicates expression of gapdh mRNA. Definitions of the lanes in FIG. 1D are the same as those of FIG. 1C."}, "[2]": {"test_system": "HepG2 cells", "assay": "apoptosis (Apoptotic evaluation 1) of siRNA-expressing HepG2 cells treated with 5-FU", "conditions": "for basal apoptosis: HepG2, 0 μmol/L 5-FU; for proportion of apoptosis in response to 5-FU: HepG2, 5-FU 10, 30 μmol/L, 60 hours, concentration-dependent", "procedure": "Objective cells were treated with various anticancer agents, and then incubated with trypsin/EDTA to prepare cell suspensions. The cell suspensions were centrifuged and supernatants thereof were removed. Thereafter, the cell suspensions each were immobilized and stained with a solution of formaldehyde of 3.7%, Nonidet P40 of 0.5%, and 10 μg/mL of Hoechst33258 (Invitrogen) in PBS. […] The counting was performed with respect to at least 300 cells in one measurement.\nEach type of the recombinant vectors was transfected into HepG2 cells for 18 hours in the same manner as in the above-described item (1). Each type of the transfection cells was treated with an anticancer agent “5-FU” having a predetermined concentration (0, 10, 30 μmol/L) for 60 hours. Then, the apoptosis (%) of the treated cells was examined according to “Apoptosis evaluation 1”. FIG. 1B is a graph showing apoptosis (%) in each type of the cells treated with 5-FU having a predetermined concentration (means±SD, n=3)."}, "[3]": {"test_system": "HCT116 cells", "assay": "apoptosis of siRNA-expressing HCT116 cells treated with low-concentration anticancer agents, with or without rVEGF", "conditions": "for enhancement of apoptosis when cells were treated with rVEGF protein: HCT116, 1 ng/ml rVEGF plus anticancer agents; for apoptosis by treatments with anticancer agents of low concentrations: HCT116, etoposide 20 μmol/L, doxorubicin 170 nmol/L, 5-FU 40 μmol/L, 60 hours, vs untreated", "procedure": "The recombinant vectors that express vegf siRNA#1 and #2 and the vectors that express control siRNA were transfected into HCT116 cells (parent cells, wild-type p53). As a control cell, an HCT116 cell not transfected with a recombinant vector that expresses siRNA was used. These four types of cells were treated in the presence or absence of various anticancer agents having the final concentrations as described below for 60 hours. As the anticancer agent, etoposide (20 μmol/L), doxorubicin (170 nmol/L), and 5-FU (40 μmol/L) were used. With respect to the treated cells, apoptosis (%) was quantified in the same manner as in Example A1.\nUTR RNA and function of VEGF protein. With the aim of clarifying an effect of blocking the function of vegf 5′ UTR RNA, recombinant VEGF protein (R&D systems, hereinafter referred to as “rVEGF”) was added to a culture supernatant of cells transfected with vegf siRNA in order to add VEGF protein that is decreased due to siRNA. […] Therefore, in Example A9, 1 ng/ml of rVEGF protein was added to the four types of cells. […] Then, these transfection cells were treated with anticancer agents in the same manner as described above."}, "[4]": {"test_system": "p53", "assay": "p53 mRNA (Northern) and p53 protein (Western) expression in siRNA-expressing HepG2 cells", "procedure": "Western immunoblotting was performed according to Huez, I. et al. Mol. Endocrinol. 15 2197-2210 (2001) or Masuda, K., et al. PLoS Med. 5, e94 (2008). As a primary antibody, anti p53 antibody (“DO-1” or “FL-393”, Santa Cruz Biotechnology, Inc.), anti […] (“clone AC-15”, Sigma Chemical Co.), anti HA (“Y-11”, Santa Cruz Biotechnology Inc.), and anti L-VEGF (polyclonal anti L-VEGF antibody) mentioned in the Huez, I. et al. (2001) were used.\nTotal RNAs were extracted according to a guanidine thiocyanate method. Labeled cDNAs were produced using the following antisense primers, a klenow fragment (New England BioLabs, Inc., Inc.), and [α^−32P]dCTP, with the following cDNAs being templates. Thus obtained labeled cDNAs were used as probes for the Northern blotting.\nEach type of the vectors was transfected into HepG2 cells for 18 hours in the same manner as in the above-described item (1). Then, the cells were treated in the presence of 5-FU (30 μmol/L) (+) or the absence of 5-FU (−). With respect to the cells treated for 8 hours, the expression level of p53 mRNA was analyzed by the Northern blotting. With respect to the cells treated for 12 hours, the expression level of p53 protein was analyzed by the Western immunoblotting. Analysis of protein also was performed with respect to β-actin protein that is an endogenous control (hereinafter, the same applies). […] In FIG. 1C, the first row from the top indicates expression of p53 mRNA, the second row indicates expression of gapdh mRNA, the third row indicates expression of p53 protein, and the fourth row indicates expression of 6-actin protein. Further, in FIG. 1C, “−” indicates the treatment in the absence of 5-FU and “+” indicates the treatment in the presence of 5-FU."}, "[5]": {"test_system": "parent cells HCT116", "assay": "apoptosis (TUNEL) in parental HCT116 cells with vegf siRNA and 5-FU", "conditions": "parent cells HCT116, siRNA expressed and 80 mmol/L of 5-FU, 60 hours", "procedure": "(§1) Apoptotic cells were evaluated by a TUNEL staining method using in situ Cell Death Detection kit (Roche Diagnostic). […] The counting was performed with respect to at least 300 cells in one measurement.\n(§2) Various types of cells were treated with 5-FU, which is an anticancer agent inducing apoptosis in a p53-dependent manner, and the sensitivity to apoptosis was analyzed. The vegf siRNA#1 vectors expressing siRNA#1, the vegf siRNA #2 vectors expressing siRNA #2, and the control siRNA vectors described above respectively were transfected into HCT 116 (parent cells) and p53-deleted cells HCT116. Then, the cells after 18 hours from the transfection was treated for 60 hours in the presence of […] of 5-FU (+) or in the absence of 5-FU (−). The proportion (%) of apoptosis positive cells in the thus-treated cells was calculated based on “Apoptotic evaluation 2” above (means±SD, n=4)."}, "[6]": {"test_system": "p53-deleted cells HCT116", "assay": "apoptosis (TUNEL) in p53-deleted HCT116 cells with vegf siRNA and 5-FU", "conditions": "p53-deleted cells HCT116, 5-FU treated, 60 hours", "procedure": "as §1, §2"}, "[7]": {"conditions": "HepG2, absence of 5-FU, vs control cells"}, "[8]": {"conditions": "HepG2, presence of 5-FU (30 μmol/L), mRNA 8 hours, protein 12 hours"}}}
{"substance": "siRNA #1: siRNA against vegf mRNA, SEQ ID NO 3/4, antisense complementary to bases 1062-1082 in SEQ ID NO. 1; expressed from pcDNA6.2-GW/EmGFP-miR vector (sense GCAUUGGACUUGCCUUGCUNN; antisense AGCAAGGCAAGGCUCCAAUGCNN)", "values": [{"measurement": "expression induction of noxa mRNA, puma mRNA, and p21 mRNA", "setting": "[1]", "result": "enhanced markedly"}, {"measurement": "basal apoptosis", "setting": "[2]", "result": "not affected"}, {"measurement": "proportion of apoptosis in response to 5-FU", "setting": "[2]", "result": "increased markedly"}, {"measurement": "enhancement of apoptosis when cells were treated with rVEGF protein", "setting": "[3]", "result": "affected very little"}, {"measurement": "apoptosis by treatments with anticancer agents of low concentrations", "setting": "[3]", "result": "enhanced markedly"}, {"measurement": "expression of p53 mRNA and p53 protein", "setting": "[4]; [7]", "result": "increased"}, {"measurement": "expression of p53 mRNA and p53 protein", "setting": "[4]; [8]", "result": "increased markedly"}, {"measurement": "proportion of apoptosis", "setting": "[5]", "result": "increased markedly"}, {"measurement": "increase in proportion of apoptosis on siRNA expression", "setting": "[6]", "result": "little increase"}]}
{"substance": "siRNA #2: siRNA against vegf mRNA, SEQ ID NO 5/6, antisense complementary to bases 1067-1087 in SEQ ID NO. 1; vector-expressed (sense GGAGCCUUGUUGCUGCUCUNN; antisense AGAGCAGCAAGGCAAGGCUCCNN)", "values": [{"measurement": "expression induction of noxa mRNA, puma mRNA, and p21 mRNA", "setting": "[1]", "result": "enhanced markedly"}, {"measurement": "basal apoptosis", "setting": "[2]", "result": "not affected"}, {"measurement": "proportion of apoptosis in response to 5-FU", "setting": "[2]", "result": "increased markedly"}, {"measurement": "enhancement of apoptosis when cells were treated with rVEGF protein", "setting": "[3]", "result": "affected very little"}, {"measurement": "apoptosis by treatments with anticancer agents of low concentrations", "setting": "[3]", "result": "enhanced markedly"}, {"measurement": "expression of p53 mRNA and p53 protein", "setting": "[4]; [7]", "result": "increased"}, {"measurement": "expression of p53 mRNA and p53 protein", "setting": "[4]; [8]", "result": "increased markedly"}, {"measurement": "proportion of apoptosis", "setting": "[5]", "result": "increased markedly"}, {"measurement": "increase in proportion of apoptosis on siRNA expression", "setting": "[6]", "result": "little increase"}]}
